# Reference: US20100272853A1, “Method of Increasing the Milk and/or Meat Quantity of Silage-Fed Animals” (BASF SE, priority 2007, published 2010)
# Columns and labels:
# Type in all cases: in vivo
# corn [1] = assay: Strip field trials New York 2006: corn forage quality by NIRS and MILK 2006 calculated milk production
# Procedure: (§1) Field trials were conducted as strip trials in farm fields in 2006 and 2008. A part of the field was treated with pyraclostrobin applied as Headline® whereas another part was left untreated. Headline® was applied at tassel emergence with 0.44 L/ha (110 g pyraclostrobin per ha) by aerial or ground application with a high clearance sprayer. Total spray volume was 93.5 to 187 L/ha for ground application and 18.7 to 46.7 L/ha for aerial application, respectively. Water was used as a carrier to prepare the spray mixture.
# (§2) Trials were harvested using a commercial forage harvester when the corn crop reached a dry matter content of about 30 to 40%. The treated and untreated area of the field was harvested separately to gain total biomass yield (ton/acre). Subsequently, the harvested plant material was used for producing silage.
# (§3) Forage samples from the harvested plants were taken from both the treated and untreated areas of the field. Samples were taken from the harvested material in the forage wagon following chopping with the commercial harvester. Multiple forage samples were taken for each of both treatments manually during harvesting in each of the trials, mixed in a larger container, and a subsample of 1.3 to 2.25 kg was taken. The subsamples were placed in plastic bags, sealed, cooled, and shipped immediately to Agsource Soil and Forage Laboratory, 106 North Cecil Street, Bonduel Wis. 54107, USA for Near Infrared Reflectance Spectroscopy (NIRS) analysis.
# (§4) Typically, samples for NIRS analysis are first dried at 55 to 65° C. for 24 h to 48 h prior to analysis. A representative subsample thereof is then dried at 105° C. for another 12 h to 24 h to evaluate the dry matter content of the samples. Subsequently, the remaining sample is grinded and homogenized and again a representative subsample is used for the NIRS analysis. The NIRS analysis procedure uses a commercially available calibration to estimate the values for each quality parameter based on the spectral reflectance information gained. The calibrations are based on the near infra red reflectance spectra of samples with known quality data. The comparison of the spectra of the samples with unknown quality data with the spectra of the known samples allows calculating estimates for each quality parameter of interest.
# (§5) NIRS analysis provided dry matter, crude protein, Acid Detergent Fibre (ADF), Neutral Detergent Fibre (NDF), and starch data. Calculations were included for moisture, adjusted crude protein, Total Digestible Nutrients (TDN), Net Energy for Lactation (NEL), Net Energy for Gain (NEG) and protein solubility.
# (§6) The information was then entered into the MILK 2006 University of Wisconsin Corn Silage evaluation system. Calculations of the milk production, energy content and digestibility per ton of corn biomass were carried out using a calculation method described in:
# (§7) a) Schwab, E. C., and R. D. Shaver. 2001: “Evaluation of corn silage nutritive value using MILK2000” (pages 21-24) in Proc. of 25th Forage Production and Use Symposium. WI Forage Council Annual Mtg. Eau Claire, Wis. b) Schwab, E. C., R. D. Shaver. J. G. Lauer, and J. G. Coors. 2003: “Estimating silage energy value and milk yield to rank corn hybrids”. J. Anim. Feed Sci. Technol. 109: 1-18. as well as in c) Undersander, D. J., W. T. Howard, and R. D. Shaver. 1993: “Milk per acre spreadsheet for combining yield and quality into a single term”. J. Prod. Ag. 6: 231 235.
# In 2006 a total of 2 strip trials were conducted in Waterloo, N.Y. Trial setup, treatments, application, harvesting, sampling and quality analysis including calculation of milk production per ton and per acre followed the procedure described before.
# corn [2] = assay: Strip field trials Maryland 2006: corn forage quality by NIRS and MILK 2006 calculated milk production
# Procedure: as §1, §2, §3, §4, §5, §6, §7
# In 2006 a total of 16 strip trials were conducted in Queen Ann County, MD. Trial setup, treatments, application, harvesting, sampling and quality analysis including calculation of milk production per ton and per acre followed the procedure described before.
# corn hybrids = assay: Field trial Wisconsin 2008 with eight corn hybrids: calculated milk production per ton of harvested biomass; settings: for Calculated milk production, Milk (kg/t): Unity, Wis., 2008
# Procedure: as §1, §2, §3, §4, §5, §6, §7
# Eight different corn hybrid varieties were tested in a field trial in Unity, Wis., in 2008. Trial setup, application, harvesting, sampling and quality analysis including calculation of milk production per ton followed the procedure described before. Each hybrid was either treated with pyraclostrobin as described before or untreated. The quality data was converted into milk production per ton of harvested biomass for each hybrid as described above.
# corn [3] = assay: Strip field trials Wisconsin 2006: corn forage quality by NIRS and MILK 2006 calculated milk production
# Procedure: as §1, §2, §3, §4, §5, §6, §7
# In 2006 a total of 7 strip trials were conducted in Manitowoc County, Wis. Trial setup, treatments, application, harvesting, sampling and quality analysis including calculation of milk production per ton and per acre followed the procedure described before.
# [4] = N.Y. 2006, vs untreated part of field
# [5] = average of 2 strip trials, N.Y. 2006, 110 g pyraclostrobin per ha at tassel emergence
# [6] = MD 2006, vs untreated part of field
# [7] = average of 16 strip trials, MD 2006, 110 g pyraclostrobin per ha at tassel emergence
# [8] = Example 4.5, hybrid N27B CBLLRW
# [9] = Wis. 2006, vs untreated part of field
# [10] = average of 7 strip trials, Wis. 2006, 110 g pyraclostrobin per ha at tassel emergence
compound,measurement,setting,value
"COC(=O)N(OC)c1ccccc1COc1ccn(-c2ccc(Cl)cc2)n1 [Pyraclostrobin, pyraclostrobin]","% CP, % Difference to Untreated",corn [1]; [4],+6.0%
same,"% Dry Matter, % Difference to Untreated",corn [1]; [4],−2.2%
same,"% NDFD, % Difference to Untreated",corn [1]; [4],+19.3%
same,"% Starch, % Difference to Untreated",corn [1]; [4],+15.3%
same,"Milk (kg/t), % Difference to Untreated",corn [1]; [4],+21.2%
same,"% NDF, % Difference to Untreated","corn [1]; N.Y. 2006, vs untreated part of field, decrease means more energy content",−16.8%
same,crude protein content (% CP),corn [1]; [5],6.52%
same,in vitro 48-hour digestible NDF expressed as percent of NDF (% NDFD),corn [1]; [5],51.30%
same,neutral detergent fiber content (% NDF),corn [1]; [5],38.18%
same,starch content (% Starch),corn [1]; [5],42.42%
same,calculated value for milk produced per ton of silage (Milk (kg/t)),"corn [1]; average of 2 strip trials, N.Y. 2006, 110 g pyraclostrobin per ha, MILK 2006 calculation",1653 kg/t
same,dry matter content (% Dry Matter),"corn [1]; average of 2 strip trials, Waterloo, N.Y., 2006, 110 g pyraclostrobin per ha at tassel emergence",36.45%
same,"% CP, % Difference to Untreated",corn [2]; [6],+6.0%
same,"% NDFD, % Difference to Untreated",corn [2]; [6],+3.9%
same,"% Starch, % Difference to Untreated",corn [2]; [6],+10.2%
same,"Milk (kg/t), % Difference to Untreated",corn [2]; [6],+5.9%
same,"TDN % of DM, % Difference to Untreated",corn [2]; [6],+3.6%
same,"% NDF, % Difference to Untreated","corn [2]; MD 2006, vs untreated part of field, decrease means more energy content",−4.8%
same,in vitro 48-hour digestible NDF expressed as percent of NDF (% NDFD),corn [2]; [7],60.6%
same,neutral detergent fiber content (% NDF),corn [2]; [7],45.9%
same,starch content (% Starch),corn [2]; [7],28.2%
same,total digestible nutrients as percent of dry matter (TDN % of DM),corn [2]; [7],70.0%
same,calculated value for milk produced per ton of silage (Milk (kg/t)),"corn [2]; average of 16 strip trials, MD 2006, 110 g pyraclostrobin per ha, MILK 2006 calculation",1730 kg/t
same,crude protein content (% CP),"corn [2]; average of 16 strip trials, Queen Ann County, MD, 2006, Headline 0.44 L/ha (110 g pyraclostrobin per ha) at tassel emergence",7.1%
same,"Milk, % Difference to Untreated","corn hybrids; Example 4.1, hybrid DS93VT3",+9.6%
same,"Calculated milk production, Milk (kg/t)","corn hybrids; Example 4.1, hybrid DS93VT3",1608 kg/t
same,"Milk, % Difference to Untreated","corn hybrids; Example 4.2, hybrid S4900VT",+17.5%
same,"Calculated milk production, Milk (kg/t)","corn hybrids; Example 4.2, hybrid S4900VT",1581 kg/t
same,"Milk, % Difference to Untreated","corn hybrids; Example 4.3, hybrid 3114VT3",+7.1%
same,"Calculated milk production, Milk (kg/t)","corn hybrids; Example 4.3, hybrid 3114VT3",1648 kg/t
same,"Milk, % Difference to Untreated","corn hybrids; Example 4.4, hybrid 491VT3",+10.9%
same,"Calculated milk production, Milk (kg/t)","corn hybrids; Example 4.4, hybrid 491VT3",1643 kg/t
same,"Milk, % Difference to Untreated",corn hybrids; [8],+22.0%
same,"Calculated milk production, Milk (kg/t)",corn hybrids; [8],1549 kg/t
same,"Milk, % Difference to Untreated","corn hybrids; Example 4.6, hybrid DS93VT3",+20.9%
same,"Calculated milk production, Milk (kg/t)","corn hybrids; Example 4.6, hybrid DS93VT3",1600 kg/t
same,"Milk, % Difference to Untreated","corn hybrids; Example 4.7, hybrid DKC48-37",+8.8%
same,"Calculated milk production, Milk (kg/t)","corn hybrids; Example 4.7, hybrid DKC48-37",1684 kg/t
same,"Milk, % Difference to Untreated","corn hybrids; Example 4.8, hybrid DS93VT3",+8.3%
same,"Calculated milk production, Milk (kg/t)","corn hybrids; Example 4.8, hybrid DS93VT3",1632 kg/t
same,"milk production per ton of harvested corn biomass, result in words",corn hybrids; across the eight tested different corn hybrids,improves the milk production per ton of harvested corn biomass
same,"% CP, % Difference to Untreated",corn [3]; [9],+4.2%
same,"% NDFD, % Difference to Untreated",corn [3]; [9],+13.2%
same,"% Starch, % Difference to Untreated",corn [3]; [9],+13.7%
same,"Milk (kg/t), % Difference to Untreated",corn [3]; [9],+14.0%
same,"% ADF, % Difference to Untreated","corn [3]; Wis. 2006, vs untreated part of field, decrease means more digestibility",−16.2%
same,"% NDF, % Difference to Untreated","corn [3]; Wis. 2006, vs untreated part of field, decrease means more energy content",−13.4%
same,crude protein content (% CP),"corn [3]; average of 7 strip trials, Manitowoc County, Wis., 2006, 110 g pyraclostrobin per ha at tassel emergence",7.5%
same,acid detergent fiber content (% ADF),corn [3]; [10],22.2%
same,in vitro 48-hour digestible NDF expressed as percent of NDF (% NDFD),corn [3]; [10],67.6%
same,neutral detergent fiber content (% NDF),corn [3]; [10],39.5%
same,starch content (% Starch),corn [3]; [10],37.4%
same,calculated value for milk produced per ton of silage (Milk (kg/t)),"corn [3]; average of 7 strip trials, Wis. 2006, 110 g pyraclostrobin per ha, MILK 2006 calculation",1815 kg/t
